{"source": "ChEMBL document CHEMBL5528062", "about": "(J Med Chem, 2024)", "key": {"[1]": {"tested_on": "Mycobacterium tuberculosis", "assay": "Antibacterial activity against Mycobacterium tuberculosis H37Rv assessed as inhibition of bacterial growth incubated for 6 days by microplate alamar blue assay", "type": "functional", "settings": "144 h, time 6 day"}, "[2]": {"tested_on": "Mycolicibacterium smegmatis", "assay": "Antimycobacterial activity against Mycobacterium smegmatis ATCC607 assessed as inhibition of bacterial growth measured after 48 hrs by broth microdilution method", "type": "functional"}, "[3]": {"tested_on": "Mycobacterium tuberculosis", "assay": "Antimycobacterial activity against Mycobacterium tuberculosis H37Rv mc2 6206 assessed as inhibition of bacterial growth measured after 7 days by visual analysis", "type": "functional", "settings": "H37Rv mc2 6206, 168 h, time 7 day"}, "[4]": {"assay": "Aqueous solubility of compound at pH 7.4 measured for 1 hr by UV-plate reader analysis", "type": "physicochemical", "settings": "buffer"}, "[5]": {"tested_on": "Mycobacterium tuberculosis", "assay": "Antibacterial activity against Mycobacterium tuberculosis H37Rv assessed as bacterial growth inhibition", "type": "functional"}, "[6]": {"tested_on": "Mycobacterium tuberculosis", "assay": "Antimycobacterial activity against Mycobacterium tuberculosis H37Rv assessed as inhibition of bacterial growth incubated for 7 to 14 days by MABA assay", "type": "functional", "settings": "time 7-14 day"}, "[7]": {"assay": "Aqueous solubility of compound at pH 7.4", "type": "physicochemical", "settings": "buffer"}, "[8]": {"tested_on": "Mycobacterium tuberculosis", "assay": "Antibacterial activity against Mycobacterium tuberculosis H37Rv assessed as reduction in microbial growth", "type": "functional"}, "[9]": {"tested_on": "Mycobacterium tuberculosis", "assay": "Antimycobacterial activity against Mycobacterium tuberculosis H37Rv assessed as reduction in bacterial cell growth by resazurin reduction method", "type": "functional"}, "[10]": {"assay": "Aqueous solubility of compound at pH 2.0 measured for 1 hr by UV-plate reader analysis", "type": "physicochemical", "settings": "buffer"}, "[11]": {"assay": "Aqueous solubility of compound in PBS at pH 6.5 incubated for 24 hrs by HPLC-MS/MS analysis", "type": "physicochemical"}, "[12]": {"tested_on": "Mycolicibacterium smegmatis", "assay": "Antimycobacterial activity against Mycobacterium smegmatis 700084 assessed as inhibition of microbial growth incubated for 48 hrs by resazurin dye based broth microdilution method", "type": "functional"}, "Acinetobacter baumannii": {"tested_on": "Acinetobacter baumannii", "assay": "Antibacterial activity against Acinetobacter baumannii harboring RpoB H535Q mutant assessed as fold change in MIC incubated for 20 hrs by CLSI based microbroth dilution method", "type": "functional"}, "[13]": {"tested_on": "Mycobacterium tuberculosis", "assay": "Antimycobacterial activity against Mycobacterium tuberculosis K204 assessed as inhibition of bacterial growth measured after 6 days by alamar blue dye based assay", "type": "functional", "settings": "K204, 144 h, time 6 day"}, "Mycobacterium avium": {"tested_on": "Mycobacterium avium", "assay": "Antibacterial activity against Mycobacterium avium ATCC 25291 assessed as inhibition of bacterial growth incubated for 2 to 3 weeks by resazurin dye based assay", "type": "functional", "settings": "time 2-3 weeks"}, "[14]": {"assay": "Aqueous solubility of compound at pH 7.4 by HPLC-MS/MS analysis", "type": "physicochemical", "settings": "buffer"}}}
{"smiles": "COc1nc2ccc(C#N)cc2cc1[C@H](c1ccccc1)[C@](O)(CCN(C)C)c1ccccc1", "values": [{"measurement": "MIC", "setting": "[1]", "value": 0.09, "unit": "µg/mL"}]}
{"smiles": "C[C@]1(COc2ccc(N3CCC(Oc4ccc(OC(F)(F)F)cc4)CC3)cc2)Cn2cc([N+](=O)[O-])nc2O1", "values": [{"measurement": "MIC", "setting": "[2]", "value": 0.03, "unit": "µg/mL"}, {"measurement": "MIC", "setting": "[3]", "value": 0.007, "unit": "µg/mL"}]}
{"smiles": "C[C@]1(COc2ccc(S(=O)(=O)N3CCOCC3)cc2)Cn2cc([N+](=O)[O-])nc2O1", "values": [{"measurement": "solubility at 1 h", "setting": "[4]", "value": 20, "unit": "µg/mL"}, {"measurement": "MIC", "setting": "[5]", "value": 0.37, "unit": "µg/mL"}]}
{"smiles": "O=[N+]([O-])c1cn2c(n1)OC[C@@H](OCc1ccc(-c3ccc(OC(F)(F)F)c(F)c3)nc1)C2", "values": [{"measurement": "MIC", "setting": "[6]", "value": 0.025, "unit": "µM"}, {"measurement": "solubility", "setting": "[7]", "value": 3, "unit": "µg/mL"}]}
{"smiles": "O=[N+]([O-])c1cn2c(n1)OC[C@@H](OCc1ccc(-c3ccc(OC(F)(F)F)cc3)nc1)C2", "note": "[TBA-354]", "values": [{"measurement": "MIC", "setting": "[6]", "value": 0.005, "unit": "µM"}, {"measurement": "solubility", "setting": "[7]", "value": 2.3, "unit": "µg/mL"}]}
{"smiles": "C[C@]1(COc2ccc(-n3cc(COc4ccc(OC(F)(F)F)cc4)nn3)cc2)Cn2cc([N+](=O)[O-])nc2O1", "values": [{"measurement": "solubility at 1 h", "setting": "[4]", "value": "< 1", "unit": "µg/mL"}, {"measurement": "MIC", "setting": "[8]", "value": 0.12, "unit": "µg/mL"}]}
{"smiles": "C[C@]1(CN2CCc3nc(-c4ccc(F)cc4)ccc3C2)Cn2cc([N+](=O)[O-])nc2O1", "values": [{"measurement": "MIC", "setting": "[9]", "value": 0.25, "unit": "µg/mL"}, {"measurement": "solubility at 1 h", "setting": "[10]", "value": 130, "unit": "µM"}, {"measurement": "solubility at 24 h", "setting": "[11]", "value": 3.35, "unit": "µM"}]}
{"smiles": "O=[N+]([O-])c1cn2c(n1)OC[C@@H](OCc1ccc(OC(F)(F)F)cc1)C2", "note": "[PRETOMANID]", "values": [{"measurement": "MIC", "setting": "[2]", "value": 0.03, "unit": "µg/mL"}, {"measurement": "MIC", "setting": "[12]", "value": 0.03, "unit": "µg/mL"}, {"measurement": "fold change (FC)", "setting": "Acinetobacter baumannii", "value": ">13"}]}
{"smiles": "O=[N+]([O-])c1cn2c(n1)OC[C@@H](OCc1ccn(-c3ccc(OC(F)(F)F)cc3)n1)C2", "values": [{"measurement": "MIC", "setting": "[13]", "value": 0.05, "unit": "µM"}]}
{"smiles": "O=[N+]([O-])c1cn2c(n1)OC[C@@H](OCc1nnn(-c3ccc(OC(F)(F)F)cc3)n1)C2", "values": [{"measurement": "MIC", "setting": "[13]", "value": 0.035, "unit": "µM"}]}
{"smiles": "O=[N+]([O-])c1cn2c(n1)OC[C@@H](OCc1ccc(-c3ccc(OC(F)(F)F)c(F)c3)cc1)C2", "values": [{"measurement": "MIC", "setting": "Mycobacterium avium", "value": 0.03, "unit": "µM"}]}
{"smiles": "O=[N+]([O-])c1cn2c(n1)OC[C@@H](OCc1ccc(-c3ccc(OC(F)(F)F)c(Cl)c3)cc1)C2", "values": [{"measurement": "MIC", "setting": "Mycobacterium avium", "value": 0.03, "unit": "µM"}]}
{"smiles": "Cn1nc(-c2ccc(OC(F)(F)F)cc2)cc1CO[C@@H]1COc2nc([N+](=O)[O-])cn2C1", "values": [{"measurement": "MIC", "setting": "[13]", "value": 0.06, "unit": "µM"}, {"measurement": "solubility", "setting": "[14]", "value": 23, "unit": "µg/mL"}]}
{"smiles": "C[C@]1(CN2CCc3nc(-c4ccccc4)ccc3C2)Cn2cc([N+](=O)[O-])nc2O1", "values": [{"measurement": "MIC", "setting": "[9]", "value": "< 0.031", "unit": "µg/mL"}, {"measurement": "solubility at 1 h", "setting": "[10]", "value": 143, "unit": "µM"}, {"measurement": "solubility at 24 h", "setting": "[11]", "value": 9.41, "unit": "µM"}]}
{"smiles": "COc1nc2ccc(Br)cc2cc1[C@@H](c1ccccc1)[C@@](O)(CCN(C)C)c1cccc2ccccc12", "note": "[BEDAQUILINE]", "values": [{"measurement": "MIC", "setting": "[2]", "value": 0.015, "unit": "µg/mL"}]}
{"smiles": "O=[N+]([O-])c1cn2c(n1)OC[C@@H](OCc1ccc(-c3ccc(OC(F)(F)F)cc3)cc1)C2", "values": [{"measurement": "MIC", "setting": "Mycobacterium avium", "value": 0.035, "unit": "µM"}]}
{"smiles": "C[C@]1(CN2CCc3nc(-c4cc(F)c(F)c(F)c4)ccc3C2)Cn2cc([N+](=O)[O-])nc2O1", "values": [{"measurement": "MIC", "setting": "[9]", "value": 0.08, "unit": "µg/mL"}, {"measurement": "solubility at 1 h", "setting": "[10]", "value": "> 200", "unit": "µM"}, {"measurement": "solubility at 24 h", "setting": "[11]", "value": "< 1", "unit": "µM"}]}
